Measurements taken from PubChem BioAssay AID268 (DTP/NCI, 2004).
Values joined by “and” are separate entries in the source; they are usually repeats but may differ in a detail not shown here. Equal entries are not always repeated.

Test system: CD2F1 mice, P1798 lymphosarcoma sc, tumor weight T/C
Experiment: NCI In Vivo Anticancer Drug Screen. Data for tumor model P1798 Lymphosarcoma (subcutaneous) in CD2F1 (CDF1) mice
Settings: endpoint: mean tumor weight, higher = larger tumour
Protocol: The antitumor activity of compounds was measured in mice bearing transplantable tumors. Survival or tumor size were measured and the results are expressed as the measurement made in the treated group (T) divided by the measurement made in the vehicle treated control group (C). The tumor model used in this assay is P1798 Lymphosarcoma (subcutaneous) in CD2F1 (CDF1) mice

[1] = dose: 5.0 mg/kg/injection, schedule: Q01DX010 (ip), vehicle: saline
[2] = dose: 10.0 mg/kg/injection, schedule: Q01DX010 (ip), vehicle: saline
[3] = dose: 20.0 mg/kg/injection, schedule: Q01DX010 (ip), vehicle: saline
[4] = dose: 40.0 mg/kg/injection, schedule: Q01DX010 (ip), vehicle: saline
[5] = dose: 50.0 mg/kg/injection, schedule: Q01DX010 (ip), vehicle: saline
[6] = dose: 100.0 mg/kg/injection, schedule: Q01DX010 (ip), vehicle: saline
[7] = dose: 200.0 mg/kg/injection, schedule: Q01DX010 (ip), vehicle: saline
[8] = dose: 12.5 mg/kg/injection, schedule: Q01DX005 (sc), vehicle: steriod suspending solution
[9] = dose: 25.0 mg/kg/injection, schedule: Q01DX005 (sc), vehicle: steriod suspending solution
[10] = dose: 50.0 mg/kg/injection, schedule: Q01DX005 (sc), vehicle: steriod suspending solution
[11] = dose: 50.0 mg/kg/injection, schedule: Q02DX010 (sc), vehicle: steriod suspending solution
[12] = dose: 50.0 mg/kg/injection, schedule: Q03DX004 (sc), vehicle: steriod suspending solution
[13] = dose: 12.5 mg/kg/injection, schedule: Q01DX010 (sc), vehicle: steriod suspending solution
[14] = dose: 25.0 mg/kg/injection, schedule: Q01DX010 (sc), vehicle: steriod suspending solution
[15] = dose: 1.25 mg/kg/injection, schedule: Q01DX010 (ip), vehicle: saline

## NC(N)=NCCCC(N)C(=O)NCCCCCCNCCCCCCNC(=O)C(N)CCCN=C(N)N (stereo not given)
[1]
  T/C: 102 % of control
[2]
  T/C: 105 % of control
[3]
  T/C: 84 % of control
[4]
  T/C: 116 % of control

## CC(=O)NCCCCCCNCCCCCCNC(C)=O
[5]
  T/C: 99 % of control
[6]
  T/C: 92 % of control
[7]
  T/C: 102 % of control
dose: 400.0 mg/kg/injection, schedule: Q01DX010 (ip), vehicle: saline
  T/C: 80 % of control

## CC1(C)O[C@@H]2C[C@H]3[C@@H]4CCC5=CC(=O)C=C[C@]5(C)[C@@]4(F)[C@@H](O)C[C@]3(C)[C@]2(C(=O)CO)O1
dose: 0.5 mg/kg/injection, schedule: Q01DX005 (sc), vehicle: steriod suspending solution
  T/C: 56 % of control
dose: 1.0 mg/kg/injection, schedule: Q01DX005 (sc), vehicle: steriod suspending solution
  T/C: 59 % of control
dose: 1.0 mg/kg/injection, schedule: Q01DX010 (sc), vehicle: steriod suspending solution
  T/C: 118 % of control
dose: 1.0 mg/kg/injection, schedule: Q02DX010 (sc), vehicle: steriod suspending solution
  T/C: 101 % of control
dose: 1.0 mg/kg/injection, schedule: Q03DX004 (sc), vehicle: steriod suspending solution
  T/C: 71 % of control
dose: 2.0 mg/kg/injection, schedule: Q01DX005 (sc), vehicle: steriod suspending solution
  T/C: 33 % of control
dose: 2.0 mg/kg/injection, schedule: Q01DX010 (sc), vehicle: steriod suspending solution
  T/C: 39 % of control
dose: 2.0 mg/kg/injection, schedule: Q02DX010 (sc), vehicle: steriod suspending solution
  T/C: 80 % of control
dose: 2.0 mg/kg/injection, schedule: Q03DX004 (sc), vehicle: steriod suspending solution
  T/C: 26 % of control
dose: 3.75 mg/kg/injection, schedule: Q01DX010 (sc), vehicle: steriod suspending solution
  T/C: 1 % of control
dose: 4.0 mg/kg/injection, schedule: Q01DX005 (sc), vehicle: steriod suspending solution
  T/C: 16 % of control
dose: 4.0 mg/kg/injection, schedule: Q01DX010 (sc), vehicle: steriod suspending solution
  T/C: 23 % of control
dose: 4.0 mg/kg/injection, schedule: Q02DX010 (sc), vehicle: steriod suspending solution
  T/C: 113 % of control
dose: 4.0 mg/kg/injection, schedule: Q03DX004 (sc), vehicle: steriod suspending solution
  T/C: 7 % of control

## O=CN(O)CC(=O)O
dose: 62.5 mg/kg/injection, schedule: Q01DX010 (ip), vehicle: saline
  T/C: 92 % of control and 67 % of control
dose: 250.0 mg/kg/injection, schedule: Q01DX010 (ip), vehicle: saline
  T/C: 104 % of control and 108 % of control

## Cc1cc(C(C)(C)C)ccc1O
dose: 6.2 mg/kg/injection, schedule: Q01DX011 (ip), vehicle: carboxymethylcellulose (CMC)
  T/C: 47 % of control
dose: 12.5 mg/kg/injection, schedule: Q01DX011 (ip), vehicle: carboxymethylcellulose (CMC)
  T/C: 105 % of control
dose: 25.0 mg/kg/injection, schedule: Q01DX011 (ip), vehicle: carboxymethylcellulose (CMC)
  T/C: 106 % of control

## N#CCSc1ncnc2nc[nH]c12
dose: 7.5 mg/kg/injection, schedule: Q01DX010 (ip), vehicle: saline
  T/C: 87 % of control
dose: 15.0 mg/kg/injection, schedule: Q01DX010 (ip), vehicle: saline
  T/C: 56 % of control
dose: 30.0 mg/kg/injection, schedule: Q01DX010 (ip), vehicle: saline
  T/C: 97 % of control and 109 % of control
dose: 60.0 mg/kg/injection, schedule: Q01DX010 (ip), vehicle: saline
  T/C: 97 % of control and 108 % of control

## O=C(Nc1ccc(NC2=NCCN2)cc1)c1ccc(C(=O)Nc2ccc(NC3=NCCN3)cc2)cc1
dose: 2.0 mg/kg/injection, schedule: Q01DX010 (ip), vehicle: saline
  T/C: 78 % of control
dose: 4.0 mg/kg/injection, schedule: Q01DX010 (ip), vehicle: saline
  T/C: 81 % of control
dose: 8.0 mg/kg/injection, schedule: Q01DX010 (ip), vehicle: saline
  T/C: 36 % of control

## CN(Cc1cnc2nc(N)nc(N)c2n1)c1c(Cl)cc(C(=O)NC(CCC(=O)O)C(=O)O)cc1Cl (stereo not given)
[2]
  T/C: 33 % of control
[3]
  T/C: 12 % of control

## CN(C)c1ccc(/C=C/c2ccnc3ccccc23)cc1
[1]
  T/C: 59 % of control
[3]
  T/C: 39 % of control and 46 % of control
[4]
  T/C: 30 % of control and 38 % of control

## C[C@]12C=CC(=O)C=C1CC[C@H]1[C@@H]3C[C@@H](O)[C@](O)(C(=O)CO)[C@@]3(C)C[C@H](O)[C@@]12F
[8]
  T/C: 16 % of control
dose: 12.5 mg/kg/injection, schedule: Q03DX004 (sc), vehicle: steriod suspending solution
  T/C: 26 % of control
[9]
  T/C: 2 % of control
dose: 25.0 mg/kg/injection, schedule: Q02DX010 (sc), vehicle: steriod suspending solution
  T/C: 115 % of control
dose: 25.0 mg/kg/injection, schedule: Q03DX004 (sc), vehicle: steriod suspending solution
  T/C: 6 % of control
[10]
  T/C: 2 % of control
[11]
  T/C: 122 % of control
[12]
  T/C: 5 % of control

## CC(=O)[C@H]1CC[C@H]2[C@@H]3C[C@H](C)C4=CC(=O)CC[C@]4(C)[C@H]3C(=O)C[C@]12C
[8]
  T/C: 89 % of control
[13]
  T/C: 93 % of control and 95 % of control
[9]
  T/C: 62 % of control
[14]
  T/C: 92 % of control and 96 % of control
[10]
  T/C: 41 % of control
[11]
  T/C: 96 % of control
[12]
  T/C: 43 % of control
dose: 75.0 mg/kg/injection, schedule: Q01DX010 (sc), vehicle: steriod suspending solution
  T/C: 103 % of control
dose: 75.0 mg/kg/injection, schedule: Q02DX010 (sc), vehicle: steriod suspending solution
  T/C: 89 % of control
dose: 100.0 mg/kg/injection, schedule: Q01DX005 (sc), vehicle: steriod suspending solution
  T/C: 32 % of control
dose: 100.0 mg/kg/injection, schedule: Q02DX010 (sc), vehicle: steriod suspending solution
  T/C: 93 % of control
dose: 100.0 mg/kg/injection, schedule: Q03DX004 (sc), vehicle: steriod suspending solution
  T/C: 46 % of control
dose: 200.0 mg/kg/injection, schedule: Q01DX010 (sc), vehicle: steriod suspending solution
  T/C: 22 % of control

## CN(C)CC(=O)c1ccc(O)c(O)c1
[7]
  T/C: 122 % of control
dose: 300.0 mg/kg/injection, schedule: Q01DX010 (ip), vehicle: saline
  T/C: 105 % of control
dose: 450.0 mg/kg/injection, schedule: Q01DX010 (ip), vehicle: saline
  T/C: 72 % of control
dose: 675.0 mg/kg/injection, schedule: Q01DX010 (ip), vehicle: saline
  T/C: 80 % of control

## COc1cc2c3c(c4ccc(OC)c(OC)c4c2cc1OC)CN1CCC[C@@H]1C3
[15]
  T/C: 100 % of control and 78 % of control
[1]
  T/C: 108 % of control and 87 % of control
[2]
  T/C: 93 % of control and 104 % of control

## CS(=O)(=O)OCCC(=O)N1CCN(C(=O)CCOS(C)(=O)=O)CC1
dose: 12.5 mg/kg/injection, schedule: Q01DX010 (ip), vehicle: saline
  T/C: 77 % of control
dose: 25.0 mg/kg/injection, schedule: Q01DX010 (ip), vehicle: saline
  T/C: 71 % of control
[5]
  T/C: 7 % of control
[6]
  T/C: 4 % of control

## CC(=O)OC1C=CC(=O)OC1C1OC1C (stereo not given)
dose: 4.0 mg/kg/injection, schedule: Q01DX011 (ip), vehicle: saline
  T/C: 53 % of control
dose: 6.0 mg/kg/injection, schedule: Q01DX011 (ip), vehicle: saline
  T/C: 72 % of control
dose: 9.0 mg/kg/injection, schedule: Q01DX011 (ip), vehicle: saline
  T/C: 62 % of control
dose: 13.0 mg/kg/injection, schedule: Q01DX011 (ip), vehicle: saline
  T/C: 56 % of control

## CC(=O)OC(C)(C)/C=C/C(=O)[C@](C)(O)[C@H]1[C@H](O)C[C@@]2(C)[C@@H]3CC=C4[C@@H](C[C@H](O)C(=O)C4(C)C)[C@]3(CO)C(=O)C[C@]12C
dose: 0.16 mg/kg/injection, schedule: Q01DX010 (ip), vehicle: saline
  T/C: 108 % of control
dose: 0.25 mg/kg/injection, schedule: Q01DX010 (ip), vehicle: saline
  T/C: 110 % of control
dose: 0.38 mg/kg/injection, schedule: Q01DX010 (ip), vehicle: saline
  T/C: 104 % of control

## O=C(NCCCC(NC(=O)OCc1ccccc1)C(=O)NCCCNCCCCNCCCNC(=O)C(CCCNC(=O)OCc1ccccc1)NC(=O)OCc1ccccc1)OCc1ccccc1 (stereo not given)
dose: 0.63 mg/kg/injection, schedule: Q01DX010 (ip), vehicle: saline
  T/C: 156 % of control
[15]
  T/C: 91 % of control
dose: 2.5 mg/kg/injection, schedule: Q01DX010 (ip), vehicle: saline
  T/C: 111 % of control

## C[C@]12CCC(=O)C=C1CC[C@@H]1[C@@H]2CC[C@@]2(C)[C@H]1CC[C@]2(C)O
[13]
  T/C: 91 % of control
[14]
  T/C: 61 % of control
dose: 50.0 mg/kg/injection, schedule: Q01DX010 (sc), vehicle: steriod suspending solution
  T/C: 90 % of control
dose: 100.0 mg/kg/injection, schedule: Q01DX010 (sc), vehicle: steriod suspending solution
  T/C: 97 % of control
